Data from ChEMBL document CHEMBL1201862, “PubChem BioAssay data set” (2004).
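Step 1: Grow cells in 96-well plates. Step 2: Expose to compound for 48 hours at 5 concentrations. Step 3: Interpolate endpoints linearly; if unreached, use highest concentration. GI50 marks 50% less growth.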 Calls of active or inactive are those of the source. Rule as the data show it: active = GI50 up to about 1.1 µM and inactive = higher.

How the values were obtained:
Test in all cases: DTP human tumour cell line panel, 48 h
NCI-H460 = system: NCI-H460
KM12 = system: KM12
HOP-92 = system: HOP-92
HT-29 = system: HT-29
UACC-62 = system: UACC-62
U-251 = system: U-251
IGROV-1 = system: IGROV-1
CAKI-1 = system: CAKI-1
TK-10 = system: TK-10
K562 = system: K562
SN12C = system: SN12C
SF-295 = system: SF-295
SK-MEL-2 = system: SK-MEL-2
OVCAR-5 = system: OVCAR-5
DLD-1 = system: DLD-1
SR = system: SR
ACHN = system: ACHN
SK-MEL-28 = system: SK-MEL-28
BT-549 = system: BT-549
Hs-578T = system: Hs-578T

SMILES	GI50 (NCI-H460)	GI50 (KM12)	GI50 (HOP-92)	GI50 (HT-29)	GI50 (UACC-62)	GI50 (U-251)	GI50 (IGROV-1)	GI50 (CAKI-1)	GI50 (TK-10)	GI50 (K562)	GI50 (SN12C)	GI50 (SF-295)	GI50 (SK-MEL-2)	GI50 (OVCAR-5)	GI50 (DLD-1)	GI50 (SR)	GI50 (ACHN)	GI50 (SK-MEL-28)	GI50 (BT-549)	GI50 (Hs-578T)
C=CC[C@@]1(C#N)C[C@H](C[C@]2(C#N)C[C@H](CCl)OC(C)(C)O2)OC(C)(C)O1	> 100 µM (inactive)	> 100 µM (inactive)	51.9 µM (inactive)	> 100 µM (inactive)	> 100 µM (inactive)	> 100 µM (inactive)	> 100 µM (inactive)	> 100 µM (inactive)	> 100 µM (inactive)	53 µM (inactive)	> 100 µM (inactive)	> 100 µM (inactive)	> 100 µM (inactive)	> 100 µM (inactive)	> 100 µM (inactive)	60.7 µM (inactive)	> 100 µM (inactive)	> 100 µM (inactive)	–	–
C=C(c1ccccc1)C1(O)CCCCC1N (stereo not given)	> 100 µM (inactive)	> 100 µM (inactive)	> 100 µM (inactive)	> 100 µM (inactive)	> 100 µM (inactive)	> 100 µM (inactive)	> 100 µM (inactive)	> 43.2 µM (inactive)	> 100 µM (inactive)	> 100 µM (inactive)	> 100 µM (inactive)	> 100 µM (inactive)	> 100 µM (inactive)	> 100 µM (inactive)	> 100 µM (inactive)	30.3 µM (inactive)	> 100 µM (inactive)	> 100 µM (inactive)	–	–
COC(=O)/C=C/C(=O)C1C(C(=O)OC)C2(C(=O)OC)CCC1(C(=O)OC)N2 (stereo not given)	–	> 100 µM (inactive)	< 0.01 µM (active)	> 100 µM (inactive)	> 100 µM (inactive)	> 100 µM (inactive)	> 100 µM (inactive)	> 100 µM (inactive)	> 100 µM (inactive)	> 100 µM (inactive)	–	> 100 µM (inactive)	> 100 µM (inactive)	> 100 µM (inactive)	> 100 µM (inactive)	> 100 µM (inactive)	–	> 100 µM (inactive)	–	–
[O-][N+]1=C(c2ccccc2)COc2ccccc21	> 100 µM (inactive)	> 100 µM (inactive)	> 100 µM (inactive)	> 100 µM (inactive)	> 100 µM (inactive)	> 100 µM (inactive)	> 100 µM (inactive)	> 100 µM (inactive)	> 100 µM (inactive)	> 100 µM (inactive)	> 100 µM (inactive)	> 100 µM (inactive)	> 100 µM (inactive)	> 100 µM (inactive)	> 100 µM (inactive)	47.5 µM (inactive)	> 100 µM (inactive)	> 100 µM (inactive)	–	–
CC(C)N(C(=O)C12C3C4C5C3C1(C(=O)N(C(C)C)C(C)C)C5(C#N)C42)C(C)C (stereo not given)	61 µM (inactive)	> 100 µM (inactive)	> 100 µM (inactive)	> 100 µM (inactive)	> 100 µM (inactive)	> 100 µM (inactive)	> 100 µM (inactive)	> 100 µM (inactive)	> 100 µM (inactive)	33.7 µM (inactive)	> 100 µM (inactive)	> 100 µM (inactive)	> 100 µM (inactive)	> 100 µM (inactive)	27.1 µM (inactive)	17.9 µM (inactive)	> 100 µM (inactive)	> 100 µM (inactive)	–	–
CC(C)(C)OC(=O)NC1CCCC1=O (stereo not given)	> 100 µM (inactive)	> 100 µM (inactive)	> 100 µM (inactive)	> 100 µM (inactive)	> 100 µM (inactive)	> 100 µM (inactive)	–	> 100 µM (inactive)	> 100 µM (inactive)	> 100 µM (inactive)	> 100 µM (inactive)	> 100 µM (inactive)	> 100 µM (inactive)	> 100 µM (inactive)	> 100 µM (inactive)	> 100 µM (inactive)	> 100 µM (inactive)	> 100 µM (inactive)	–	–
C=C1CCC2C(C)(CO)C(O)CCC2(C)C1CC(O)C1=CCOC1=O (stereo not given)	49.9 µM (inactive)	36.1 µM (inactive)	> 100 µM (inactive)	35.7 µM (inactive)	> 100 µM (inactive)	17.3 µM (inactive)	61.1 µM (inactive)	78 µM (inactive)	> 100 µM (inactive)	34.1 µM (inactive)	31.4 µM (inactive)	46.2 µM (inactive)	53.5 µM (inactive)	> 100 µM (inactive)	86.3 µM (inactive)	18 µM (inactive)	60.7 µM (inactive)	> 100 µM (inactive)	–	–
COC(=O)/C([Se]c1c(C)cc(C)cc1C)=C(\[Se]c1c(C)cc(C)cc1C)C(=O)OC	> 100 µM (inactive)	> 100 µM (inactive)	> 100 µM (inactive)	> 100 µM (inactive)	> 100 µM (inactive)	> 100 µM (inactive)	> 100 µM (inactive)	> 100 µM (inactive)	> 100 µM (inactive)	> 100 µM (inactive)	> 100 µM (inactive)	> 100 µM (inactive)	> 100 µM (inactive)	> 100 µM (inactive)	> 100 µM (inactive)	> 100 µM (inactive)	> 100 µM (inactive)	–	–	–
COc1cccc2c1c1ccc3c(c1n2C)C(=O)C=CC3=O	48.4 µM (inactive)	78 µM (inactive)	13.1 µM (inactive)	2.43 µM (inactive)	17.1 µM (inactive)	48.5 µM (inactive)	25.5 µM (inactive)	3.15 µM (inactive)	18.9 µM (inactive)	3.61 µM (inactive)	20.3 µM (inactive)	> 100 µM (inactive)	16.9 µM (inactive)	41.9 µM (inactive)	16.4 µM (inactive)	2.4 µM (inactive)	15 µM (inactive)	19 µM (inactive)	–	–
Cc1ccc2nc(NC(=O)/C(=N\NC(=S)NN)C3C(=O)NC(=S)NC3=O)sc2c1	> 100 µM (inactive)	> 100 µM (inactive)	> 100 µM (inactive)	> 100 µM (inactive)	> 100 µM (inactive)	> 100 µM (inactive)	> 100 µM (inactive)	> 100 µM (inactive)	> 100 µM (inactive)	> 100 µM (inactive)	> 100 µM (inactive)	> 100 µM (inactive)	> 100 µM (inactive)	> 100 µM (inactive)	> 100 µM (inactive)	> 100 µM (inactive)	> 100 µM (inactive)	> 100 µM (inactive)	–	–
CCN(CCCl)CCCCNc1c2ccccc2nc2ccc(OC)cc12	0.0601 µM (active)	0.356 µM (active)	0.18 µM (active)	0.13 µM (active)	0.171 µM (active)	0.239 µM (active)	0.163 µM (active)	0.394 µM (active)	0.92 µM (active)	0.2 µM (active)	< 0.023 µM (active)	0.259 µM (active)	0.662 µM (active)	0.659 µM (active)	0.0891 µM (active)	< 0.01 µM (active)	0.178 µM (active)	1.58 µM (inactive)	1.38 µM (inactive)	1.22 µM (inactive)
